Reference: US20260232668A1 (Kadmon Corporation, LLC, priority 2023, published 2026)
Entries after “also recorded” stand apart in the source; their conditions may differ. Where two headings read alike, the source gives them in different places.

Key:
[1] = test system: B cells (CD20+) in human whole blood; assay: anti-CD79b-mediated B-cell activation in human whole blood (CD69 on CD20+ B cells, flow cytometry); format: cell-based; conditions: anti-CD79b stimulation
Method: Flow cytometric analyses were conducted using BD LSRFortessa™ Cell Analyzer (BD Biosciences) and the data analyzed by FlowJo (BD Biosciences). B-cell activation is determined by an increase in surface expression of activation marker CD69 on B cells (CD20+) following anti-CD79b stimulation. The experiment was conducted in duplicate.

[2] = cited from earlier work
[3] = test system: murine model of sclerodermatous chronic graft-versus-host disease (GVHD); conditions: for survival: PO Days 21-55: belumosudil 125 mg/kg Days 21-32 then 100 mg/kg, ibrutinib 20 mg/kg, rilzabrutinib 40 mg/kg BID, vehicle 91.7%
[4] = test system: sclerodermatous chronic GVHD model; assay: Example 2: mouse model of sclerodermatous chronic GVHD, single agents; format: in vivo
Method: Animals were not replaced during the course of the study. Mice were handled in accordance with standard conventional procedures. Animals were acclimatized for a minimum of 3 days prior to study commencement. […] The study was performed in animal rooms provided with filtered air at a temperature of 70±5° F. and 50% 20% relative humidity and an automatic timer for a light/dark cycle of 12 hours on and 12 hours off with no twilight.
On Day 0, a combination of bone marrow cells and splenocytes were transferred from donor LP/J mice to the recipients, as indicated in Table 2. […] The BM cells were isolated using standard flushing practices. […] All animals were monitored daily, and weight, survival, and disease progression were recorded following the scoring system described in Table 4.
On Day 20, animals were redistributed into groups so that the average scGVHD score was similar across all groups. Treatment was initiated on Day 21 and continued until Day 55. All dosing was performed BID to control for stress associated with oral gavage. […] On Days 33, 36, 39, 42, and 45, all animals were photographed under isoflurane anesthesia to assess disease severity.

[5] = test system: murine model of sclerodermatous chronic graft-versus-host disease (GVHD); assay: Example 4: murine model of sclerodermatous chronic GVHD, ibrutinib and rilzabrutinib; format: in vivo, mouse; conditions: for animals that did not display progressive disease by Day 56 (standard GVHD scale): vehicle 9%; for lung sum and individual component histopathology scores vs vehicle: ibrutinib 12.5 and 25 mg/kg (Groups 4, 5), rilzabrutinib 20 and 40 mg/kg (Groups 6, 7), not statistically significant
From the text: Animals were acclimatized for at least three days prior to study commencement.
Sclerodermatous chronic GVHD was induced in C57Bl/6 (CD45.1) mice using a single acute dose of 8.5 Gy of TBI on Day −1. […] The BM cells were isolated using standard flushing practices. […] Additionally, following TBI on Day −1 and up to Day 8, all animals were given supplemental high calorie highly palatable food in a dish on the bottom of the cage. Following transfer on Day 0, and then again as needed, all animals were given 1 mL/animal/day of supplemental fluids (warmed ringers solution) via subcutaneous injection. An additional 1 mL fluid may have been given in the pm on an as needed basis.
Ibrutinib. Ibrutinib was formulated with vehicle (0.5% MC).
Animals were treated twice daily on Days 21-55.
Animals in Groups 4 and 5 were administered ibrutinib for the first/AM dose and vehicle for the last/PM dose each day of dosing.
The modified GVHD score for scGVHD was based on 5 criteria: percentage of weight change (0-4), posture (hunching) (0-3), activity (0-3), fur texture (0-4), and skin integrity (0-4) (maximum index=18). […] Animals that appeared to be in pain were administered buprenorphine BID, as needed.
Progression-free survival was defined as an increase in GVHD Score of […] in comparison to Day 21 GVHD Score (standard or modified).
Fixed lung and skin samples were embedded in paraffin, sectioned at 5 microns, and slides stained with hematoxylin and eosin (H&E). One slide per block was sectioned and stained with hematoxylin and eosin (H&E). All slides were evaluated and scored with light microscopy by a board-certified veterinary pathologist.
Parametric data (weight change) were evaluated using one-way ANOVA with Dunnett's multiple comparisons test to compare all groups to the vehicle control group. Non-parametric data (GVHD scores) were analyzed with Kruskal-Wallis with Dunn's post-hoc test. All statistical analyses were performed using GraphPad Prism 8.4.3 Software (La Jolla, CA). Statistical significance was achieved when p<0.05.
Skin and Lung Histopathology. […] One slide per block was sectioned and stained with H&E. All slides were evaluated and scored with light microscopy by a board-certified veterinary pathologist. […] Lung range: 0-10; skin range: 0-30.
Dermal Thickness Measurements. Using H&E-stained slides, the dermis was measured (μm) in five areas across the tissue, with a mean calculated for each sample. Measurements were performed from epidermal basement membrane to the most superficial border of dermal collagen with subcuticular adipose. These measurements were only performed in areas of non-tangentially sectioned tissue, free of histologic artifacts, and with an intact epidermis.
Statistical Analysis. Data are presented as mean±standard error of the mean (SEM). Semi-quantitative sum and component histopathology scores were analyzed (GraphPad Prism) by non-parametric ANOVA (Kruskal-Wallis H test) with Dunn's multiple comparison post-hoc tests; dermal measurements were analyzed by one-way ANOVA with post-hoc Tukey tests as appropriate. Significance was set at p<0.05 for all tests.

[6] = dose groups not distinguished in the legend

What does the source list for CC(C)NC(=O)COc1cccc(-c2nc(Nc3ccc4[nH]ncc4c3)c3ccccc3n2)c1 [belumosudil, 2-{3-[4-(1H-indazol-5-ylamino)-2-quinazolinyl]phenoxy}-N-(propan-2-yl) acetamide]?
activated B cells (CD69 positive) ([1]; 10 μM compound, whole blood, anti-CD79b alone 73.4%): 82.4%; inhibition of B-cell activation in whole blood (dose-response graph) ([1]; 10 μM to 0.00017 μM): did not inhibit; belumosudil exposure ([2]; coadministration with proton pump inhibitors): decreases belumosudil exposure; belumosudil exposure ([2]; coadministration with strong CYP3A inducers): decreases belumosudil exposure; survival [3]: 80%

With C=CC(=O)N1CCC[C@@H](n2nc(-c3ccc(Oc4ccccc4)cc3)c3c(N)ncnc32)C1 [ibrutinib, 1-[(3R)-3-[4-amino-3-(4-phenoxyphenyl)-1H-pyrazolo[3,4-d]pyrimidin-1-yl]-1-piperidinyl]-2-propen-1-one, reference compound] as the compound, how does the GVHD scores ([4]; ibrutinib 25 mg/kg PO AM dose, Days 21-55, vs vehicle) read?
The GVHD scores was “numerical reduction in GVHD scores”.

And the “body weight change (AUC Day 0-56) vs vehicle” value ([5]; 12.5 mg/kg (Group 4))?
Its value is “notably more weight gain”.

What about the “body weight change, death weight carried, vs vehicle” value ([5]; 12.5 mg/kg (Group 4)) of the same compound?
Its value is “trend of increased weight gain”.

And the “animals that did not display progressive disease by Day 56 (standard GVHD scale)” value ([5]; 12.5 mg/kg (Group 4))?
Its value is 10%.

What about the survival ([5]; 12.5 mg/kg PO AM dose, Days 21-55 (Group 4), to Day 56) of the same compound?
Its survival is “survived until the end of the study”.

What about the “modified GVHD score (AUC) vs vehicle” value ([5]; 25 mg/kg (Group 5)) of the same compound?
The value was “notably lower modified GVHD scores”.

What about the “modified GVHD score, death score carried: trend of lowered scores vs vehicle” value ([5]; 25 mg/kg (Group 5)) of the same compound?
Its value is “dampened after adjusting for survivor bias”.

And the “skin sum histopathology score vs vehicle” value ([5]; 25 mg/kg (Group 5))?
Its value is “lowered sum scores”.

And the “standard GVHD score (AUC) vs vehicle” value ([5]; 25 mg/kg (Group 5))?
The value was “notably lower standard GVHD scores”.

And the “standard GVHD score, death score carried: trend of lowered scores vs vehicle” value ([5]; 25 mg/kg (Group 5))?
The value was “dampened after adjusting for survivor bias”.

And the “dermal fibrosis score vs vehicle” value ([5]; 25 mg/kg (Group 5), p=0.02)?
The value was “statistically lowered dermal fibrosis scores”.

And the “animals that did not display progressive disease by Day 56 (standard GVHD scale)” value ([5]; 25 mg/kg (Group 5))?
Its value is 40%.

And the survival ([5]; 25 mg/kg PO AM dose, Days 21-55 (Group 5), vehicle 82%)?
The survival was 90%.

And the “skin sum histopathology score (FIG. 10A legend)” value [5, 6]?
The value was “Slightly lowered sum scores”.

What about the “lung sum and individual component histopathology scores vs vehicle” value ([5]; listed as ibrunitib) of the same compound?
The value was “Small reductions; also recorded: slight reductions in sum histopathology scores”.

And the survival [3]?
Its survival is 90%.

Which “disease severity (GVHD scores, total GVHD burden AUC)” value ([4]; rilzabrutinib 20 and 40 mg/kg BID PO, Days 21-55) does the source give for CC(C)(C=C(C#N)C(=O)N1CCC[C@@H](n2nc(-c3ccc(Oc4ccccc4)cc3F)c3c(N)ncnc32)C1)N1CCN(C2COC2)CC1 [rilzabrutinib, (R)-2-[3-[4-amino-3-(2-fluoro-4-phenoxy-phenyl)pyrazolo[3,4-d]pyrimidin-1-yl]piperidine-1-carbonyl]-4-methyl-4-[4-(oxetan-3-yl)piperazin-1-yl]pent-2-enenitrile] here?
The value was “dose-dependent, with a greater reduction in disease severity observed at the higher 40 mg/kg dose”.

What about the IC50 ([1]; Homo sapiens, B-cell, dose-response 10 μM to 0.00017 μM, read-out: IC50 of inhibition of B-cell activation in whole blood) of the same compound?
The IC50 was 9.5 nM.

What about the “body weight change (AUC Day 0-56) vs vehicle” value ([5]; 20 mg/kg BID (Group 6)) of the same compound?
Its value is “notably more weight gain”.

What about the “body weight change, death weight carried, vs vehicle” value ([5]; 20 mg/kg BID (Group 6)) of the same compound?
Its value is “trend of increased weight gain”.

And the “modified GVHD score (AUC) vs vehicle” value ([5]; 20 mg/kg BID (Group 6))?
The value was “notably lower modified GVHD scores”.

What about the “modified GVHD score, death score carried: trend of lowered scores vs vehicle” value ([5]; 20 mg/kg BID (Group 6)) of the same compound?
Its value is “dampened after adjusting for survivor bias”.

And the “standard GVHD score (AUC) vs vehicle” value ([5]; 20 mg/kg BID (Group 6))?
The value was “notably lower standard GVHD scores”.

What about the “standard GVHD score, death score carried: trend of lowered scores vs vehicle” value ([5]; 20 mg/kg BID (Group 6)) of the same compound?
The value was “dampened after adjusting for survivor bias”.

What about the “dermal thickness (H&E)” value ([5]; 20 mg/kg BID (Group 6), among-group p=0.3) of the same compound?
The value was “small reduction in mean thickness”.

And the “animals that did not display progressive disease by Day 56 (standard GVHD scale)” value ([5]; 20 mg/kg BID (Group 6))?
The value was 30%.

What about the survival ([5]; 20 mg/kg BID PO, Days 21-55 (Group 6), vehicle 82%) of the same compound?
The survival was 80%.

And the “modified GVHD score (AUC) vs vehicle” value ([5]; 40 mg/kg BID (Group 7))?
The value was “notably lower modified GVHD scores”.

What about the “modified GVHD score, death score carried: trend of lowered scores vs vehicle” value ([5]; 40 mg/kg BID (Group 7)) of the same compound?
Its value is “dampened after adjusting for survivor bias”.

What about the “standard GVHD score (AUC) vs vehicle” value ([5]; 40 mg/kg BID (Group 7)) of the same compound?
Its value is “notably lower standard GVHD scores”.

And the “standard GVHD score, death score carried: trend of lowered scores vs vehicle” value ([5]; 40 mg/kg BID (Group 7))?
The value was “dampened after adjusting for survivor bias”.

And the “dermal fibrosis score vs vehicle” value ([5]; 40 mg/kg BID (Group 7), p=0.09)?
Its value is “statistical trend toward lowered scores”.

What about the “animals that did not display progressive disease by Day 56 (standard GVHD scale)” value ([5]; 40 mg/kg BID (Group 7)) of the same compound?
The value was 10%.

And the survival ([5]; 40 mg/kg BID PO, Days 21-55 (Group 7), vehicle 82%)?
Its survival is 90%.

And the “dermal thickness (FIG. 11 legend)” value [5, 6]?
The value was “slight reduction in dermal thickness”.

What about the “skin sum histopathology score (FIG. 10A legend)” value [5, 6] of the same compound?
Its value is “Slightly lowered sum scores”.

And the “skin sum histopathology score vs vehicle” value ([5]; either dose, 20 and 40 mg/kg BID (Groups 6 and 7))?
The value was “lowered sum scores”.

And the “lung sum and individual component histopathology scores vs vehicle” value [5]?
The value was “Small reductions”.

What about the “lung sum and individual component histopathology scores vs vehicle” value ([5]; listed as rilzabrunitib) of the same compound?
Its value is “slight reductions in sum histopathology scores”.

What about the “standard GVHD score, death score carried, vs vehicle” value ([3]; Groups 4-8, rilzabrutinib 40 mg/kg BID (Group 6)) of the same compound?
Its value is “trend of lower standard GVHD scores”.

What about the survival [3] of the same compound?
The survival was “survived to the conclusion of the study”.
